Source: patent US11771685B2, “Compounds for the treatment of neurological or mitochondrial diseases” (MUSC FOUNDATION FOR RESEARCH DEVELOPMENT, priority 2018, dated 2023)
Converted amounts (≈) assume the structure as drawn. Where two headings read alike, the source gives them in different places.

Experiments:
[1] = In vivo pharmacokinetics in CD-1 mice; settings: male, CD-1, mouse, plasma, ip, 20 mg/kg, intraperitoneal 20 mg/kg, 5% DMSO: 95% neobee
[2] = Brain tissue binding; format: in vitro ADME; settings: in vitro, read-out: Brain tissue binding (% bound)
[3] = Aqueous solubility at pH 7.4; format: physicochemical; settings: pH 7.4, aqueous buffer; 50 mM phosphate buffer
[4] = Liver microsome stability; format: in vitro ADME; settings: in vitro
[5] = Mini-Ames test (mutagenicity); format: cell-based; settings: in vitro
[6] = In vivo pharmacokinetics in CD-1 mice; parameters: species or system mouse; settings: for Vd: read-out: Vss
Procedure: PK studies on 3 and 25 were carried out in CD-1 mice. Three males were dosed via oral gavage needle for oral administration at 20 mg/kg (10 mL/kg) or via intravenous administration at 5 mg/kg (10 mL/kg). Blood samples were taken at time intervals between 5 min and 24 hr from each animal.
The PK studies of 1 were performed by WuXi AppTec and PK studies of 3 and 25 were performed by Touchstone Biosciences (Peng et al., 2006b; Peng et al., 2001; Peng et al., 2006a; Peng et al., 2009). Male CD-1 mice were fed a standard laboratory rodent diet and housed in individual cages on a 12 hr light and 12 hr dark cycle with room temperature maintained at 22±3° C. and relative humidity at 50±20%. Animals were typically fasted overnight before dosing, with food returned after the 6 hr blood samples were obtained. Water was provided ad libitum throughout the study. The dosing solution of each test compound was prepared in a desired oral or intravenous formulation. Three to four animals were dosed via gavage needle for oral administration at 10-20 mg/kg (10-20 mL/kg) or via tail vein injection for IV administration at 2-5 mg/kg (2-5 mL/kg). […] Fluid replacement (1.5 mL of 0.9% NaCl injection, USP) was administered subcutaneously once after the 2 hr blood sampling. Blood samples were collected in BD Microtainer tubes coated with anticoagulant, placed on ice, and within 30 min, centrifuged at 15,000 g for 5 min to obtain plasma samples. All plasma samples were stored at −70° C. until analysis.
Plasma samples were prepared as follows. Three volumes of acetonitrile containing internal standard was added to one volume of plasma to precipitate proteins. Samples were centrifuged (3000 g for 10 min) and supernatant removed for analysis by LC-MS/MS. Calibration standards and quality controls were made by preparation of a 1 mg/mL stock solution and subsequently a series of working solutions in methanol:water (1:1, v/v) which were spiked into blank plasma to yield a series of calibration standard samples in the range of 1.0 ng/mL to 10 μg/mL and quality control samples at three concentration levels (low, middle and high). All incurred PK/PD plasma samples were treated identically to the calibration standards and quality control samples. LC-MS-MS analysis was performed utilizing multiple reaction monitoring for detection of characteristic ions for each drug candidate, additional related analytes and internal standard.
Plasma concentrations were measured as described above to determine a concentration vs. time profile. The area under the plasma concentration vs time curve (AUC) was calculated using the linear trapezoidal method. Fitting of the data to obtain pharmacokinetic parameters was carried out using non-compartmental analysis. Key PK parameters reported following intravenous administration are as follows: terminal half-life t1/2, initial plasma concentration C0, area under the plasma concentration vs. time curve AUC, volume of distribution at steady-state Vss, total plasma clearance CLp, and mean residence time MRT. Key PK parameters reported following extravascular administration are as follows: terminal half-life t1/2, maximum plasma concentration Cmax, time to reach maximum plasma concentration tmax, area under the plasma concentration vs. time curve AUC, mean residence time MRT, and bioavailability F. All parameters are expressed for individual animals as well as mean, standard deviation, and coefficient of variation.

[7] = Rotarod neurotoxicity test in mice; format: in vivo, mouse; settings: for Rotarod (Tox) N/T, mice that fell off: 1 hr, 32 mA study
[8] = tested on: corneal kindled mouse; test: Mouse corneal kindled model; format: in vivo; settings: 100, 300 and 400 mg/kg, 5% DMSO: 95% Neobee
Procedure: Synthesis for both compounds has been successfully scaled up. The pharmacokinetic (PK) parameters of these two Vitamin K analogs were determined via intravenous, intraperitoneal and oral administration in mice, and preliminary in vitro ADMET parameters were assessed (Table 3). These compounds are Ames-negative, have hepatic stability greater than 1 hour, can be formulated in oral solution and IV injection solution, can be synthesized in greater than 1 mg quantities, and have established brain PK. However, brain tissue binding was high for both compounds (97-98%). Both 3 (NT-181) and 17 (NT-102) have been tested for efficacy in the 6 Hz mouse seizure model at 22 mA and 32 mA, the corneal kindled mouse model, and the rat in vitro spontaneous electrographic bursting model of pharmacoresistance (Table 4). […] Preliminary studies with this new formulation reveal excellent solubility with full protection in the 6 Hz mouse seizure model at 22 mA, and quantification of both compounds (using this new formulation) in this model at 22 mA, 32 mA and 44 mA, is being performed as well as retesting in the corneal kindled model. […] Rat PK assessments will be performed, and seizure protection assessed in rat models in the ADD workflow such as the 6 Hz model and lamotrigine-resistant amygdala kindled mode.

[9] = intraperitoneal 20 mg/kg, 5% DMSO: 95% neobee
[10] = intravenous 5 mg/kg, 20% DMA: 40% PEG300: 40% H2O
[11] = male, CD-1, mouse, plasma, iv, 5 mg/kg, intravenous 5 mg/kg, 20% DMA: 40% PEG300: 40% H2O
[12] = male, CD-1, mouse, plasma, po, 20 mg/kg, oral 20 mg/kg, 5% DMSO: 95% Neobee
[13] = oral 20 mg/kg, 5% DMSO: 95% Neobee
[14] = intravenous, 3 and 25 at 5 mg/kg, 5 mg/kg
[15] = male, CD-1, mouse, plasma, iv, 5 mg/kg, 3 and 25 at 5 mg/kg
[16] = male, CD-1, mouse, plasma, po, 20 mg/kg, oral 20 mg/kg, 20% DMA-40% PEG300-40% H2O
[17] = male, CD-1, mouse, plasma, po, 20 mg/kg, oral 20 mg/kg, suspension 1% Tween 80:1% carboxymethylcellulose in water
[18] = oral 20 mg/kg, 20% DMA-40% PEG300-40% H2O

Structure (SMILES): CC(C)CCNC1=CC(=O)c2ccccc2C1=O [Compound 17, 2-(Isopentylamino)naphthalene-1,4-dione]
- AUC(0-inf) [1]: 1730 ng·h/mL
- Cmax [1]: 320 ng/mL
- MRT inf [1]: 4.39 h
- Tmax [1]: 1 h
- fraction unbound [2]: 0.02 to 0.03
- solubility [3]: 9.64 µg/mL (≈ 39.6 µM)
- Liver microsome stability (t1/2) ([4]; listed as NT-102): >1 h
- half-life ([4]; liver microsomes, read-out: Liver microsome stability (t1/2)): > 1 h
- Mini-Ames test (mutagenicity) [5]: Ames-negative
- Mini-Ames test (mutagenicity) ([5]; listed as NT-102): Negative
- T1/2 [6, 9]: 3.38 h
- tlast [6, 9]: 24 h
- Clast [6, 10]: 0.154 ng/mL
- T1/2 [6, 10]: 4.47 h
- AUC(0-t) ([6]; male, CD-1, mouse, plasma, ip, 20 mg/kg, intraperitoneal 20 mg/kg, 5% DMSO: 95% neobee): 1720 ng·h/mL
- AUC(0-inf) [6, 11]: 637 ng·h/mL
- MRT inf [6, 11]: 0.874 h
- clearance ([6]; male, CD-1, mouse, plasma, iv, 5 mg/kg, intravenous 5 mg/kg, 20% DMA: 40% PEG300: 40% H2O, read-out: CLp): 131 mL/min/kg
- Vd [6, 11]: 6.89 L/kg
- AUC(0-inf) [6, 12]: 914 ng·h/mL
- MRT inf [6, 12]: 2.5 h
- Tmax [6, 12]: 0.25 h
- concentration at 24 hr ([6]; male, CD-1, mouse, plasma, intraperitoneal 20 mg/kg, 5% DMSO: 95% neobee, read-out: Clast): 1.95 ng/mL
- C0 ([6]; male, CD-1, mouse, plasma, intravenous 5 mg/kg, 20% DMA: 40% PEG300: 40% H2O): 1910 ng/mL
- concentration at 24 hr ([6]; male, CD-1, mouse, plasma, oral 20 mg/kg, 5% DMSO: 95% Neobee, read-out: Clast): 1.43 ng/mL
- Cmax [6, 13]: 1025 ng/mL
- F [6, 13]: 35.9%
- t1/2 [6, 13]: 5.28 h
- tlast [6, 13]: 24 h
- Rotarod (Tox) N/T, mice that fell off ([7]; 50 mg/kg): 0/8
- Rotarod (Tox) N/T, mice that fell off ([7]; 100 mg/kg): 0/8
- Rotarod (Tox) N/T, mice that fell off ([7]; 200 mg/kg): 1/8
- Rotarod (Tox) N/T, mice that fell off ([7]; 300 mg/kg): 3/8
- Neurotoxicity (Rotorod assay), animals showing toxicity ([7]; 5% DMSO: 95% Neobee): 0/72 showed toxicity
- Number of Animals Protected [8]: 0/24 at 100, 300 and 400 mg/kg

Structure (SMILES): CC(C)CCOC1=CC(=O)c2ccccc2C1=O [Compound 25, 2-(Isopentyloxy)naphthalene-1,4-dione]
- AUCinf/D ([6]; intravenous, 5 mg/kg): 242 h·(ng/mL)/(mg/kg)
- tlast ([6]; intravenous, 5 mg/kg): 24 h
- CL [6, 14]: 69 mL/min/kg
- Vss [6, 14]: 13 L/kg
- clearance ([6]; male, CD-1, mouse, plasma, iv, 5 mg/kg, intravenous, 3 and 25 at 5 mg/kg, read-out: CL): 68.8 mL/min/kg
- Vd ([6]; male, CD-1, mouse, plasma, iv, 5 mg/kg, intravenous, 3 and 25 at 5 mg/kg): 13.2 L/kg
- AUC(0-inf) [6, 15]: 1210 ng·h/mL
- AUC(0-t) [6, 15]: 1200 ng·h/mL
- MRT inf [6, 15]: 3.2 h
- half-life [6, 15]: 4.31 h
- AUC(0-inf) [6, 16]: 11500 ng·h/mL
- AUC(0-t) [6, 16]: 7360 ng·h/mL
- MRT inf [6, 16]: 7.84 h
- Tmax [6, 16]: 0.333 h
- half-life [6, 16]: 5.56 h
- Cmax ([6]; male, CD-1, mouse, plasma, po, 20 mg/kg, oral 20 mg/kg, 20% DMA-40% PEG300-40% H2O, read-out: Cmax): 2080 ng/mL
- AUC(0-inf) [6, 17]: 1950 ng·h/mL
- half-life [6, 17]: 3.49 h
- Cmax ([6]; male, CD-1, mouse, plasma, po, 20 mg/kg, oral 20 mg/kg, suspension 1% Tween 80:1% carboxymethylcellulose in water, read-out: Cmax): 282 ng/mL
- bioavailability ([6]; male, CD-1, mouse, plasma, po, 20 mg/kg, oral 20 mg/kg, suspension 1% Tween 80:1% carboxymethylcellulose in water, read-out: oral bioavailability (F)): 40.3%
- concentration at 24 hr ([6]; male, CD-1, mouse, plasma, intravenous, 5 mg/kg, read-out: Clast): 2.26 ng/mL
- C0 ([6]; male, CD-1, mouse, plasma, intravenous, 3 and 25 at 5 mg/kg): 1600 ng/mL
- concentration at 8 hr ([6]; male, CD-1, mouse, plasma, oral 20 mg/kg, 20% DMA-40% PEG300-40% H2O, 8 hr post-dose, read-out: Clast): 531 ng/mL
- decrease of Cmax and AUC, suspension vs solution formulation ([6]; oral 20 mg/kg): 6-7 fold
- AUCinf/D [6, 18]: 576 h·(ng/mL)/(mg/kg)
- Cmax/D [6, 18]: 104 (ng/mL)/(mg/kg)
- tlast [6, 18]: 8 h
- T1/2 ([6]; oral 20 mg/kg, 20% DMA-40% PEG300-40% H2O, 20 mg/kg): 5.6 h
- oral bioavailability (F) ([6]; oral 20 mg/kg, suspension 1% Tween 80:1% carboxymethylcellulose in water, 20 mg/kg): 40%
